In patent US20250163022A1, “PARP1 INHIBITORS” (Synnovation Therapeutics, Inc., priority 2021, published 2025) one finds IC50 data, which are given here for 20 compounds.

The experiment deals with T1, PARP1 (Homo sapiens, UniProt P09874).
T1 construct: HeLa cells (wide-type with PARP1 gene) were purchased from ATCC; host or cells: HeLa (wild type)
T1 sequence (P09874 whole entry): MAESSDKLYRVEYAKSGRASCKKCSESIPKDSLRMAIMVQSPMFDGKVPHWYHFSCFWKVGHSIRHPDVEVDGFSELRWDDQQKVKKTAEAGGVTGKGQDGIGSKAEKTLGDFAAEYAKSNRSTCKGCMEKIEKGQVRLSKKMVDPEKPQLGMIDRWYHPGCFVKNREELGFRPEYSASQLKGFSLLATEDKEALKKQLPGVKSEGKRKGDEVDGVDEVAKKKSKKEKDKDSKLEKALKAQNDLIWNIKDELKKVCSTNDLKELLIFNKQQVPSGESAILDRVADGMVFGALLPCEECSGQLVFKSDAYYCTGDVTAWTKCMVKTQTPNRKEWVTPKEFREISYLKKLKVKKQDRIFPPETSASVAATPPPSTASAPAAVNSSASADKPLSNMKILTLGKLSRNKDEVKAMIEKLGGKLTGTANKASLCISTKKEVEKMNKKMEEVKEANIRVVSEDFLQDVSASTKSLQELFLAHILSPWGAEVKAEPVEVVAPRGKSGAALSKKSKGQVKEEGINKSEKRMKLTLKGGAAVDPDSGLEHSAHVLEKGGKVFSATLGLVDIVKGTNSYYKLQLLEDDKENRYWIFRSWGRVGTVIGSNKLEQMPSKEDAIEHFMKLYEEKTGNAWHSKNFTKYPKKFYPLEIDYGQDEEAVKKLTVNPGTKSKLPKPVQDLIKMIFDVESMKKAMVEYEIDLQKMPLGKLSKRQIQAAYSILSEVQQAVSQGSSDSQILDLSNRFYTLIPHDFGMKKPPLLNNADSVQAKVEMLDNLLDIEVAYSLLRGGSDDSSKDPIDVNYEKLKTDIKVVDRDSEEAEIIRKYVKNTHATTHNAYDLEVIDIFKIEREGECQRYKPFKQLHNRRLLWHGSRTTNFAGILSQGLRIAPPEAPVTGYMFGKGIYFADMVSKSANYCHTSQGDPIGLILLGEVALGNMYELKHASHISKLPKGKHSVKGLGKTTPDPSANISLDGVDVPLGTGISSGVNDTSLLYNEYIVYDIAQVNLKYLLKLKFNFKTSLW
Nature of the experiment: In-Cell Western measurement of PARylation in PARP1 WT and knockout cells. The following applies: HeLa cells (wide-type with PARP1 gene); hydrogen peroxide-induced PARylation; compounds 30 min, then 10 mM hydrogen peroxide 15 min; read-out: HeLa_WT_IC50. The class given is cell-based. The text has this: The purpose of this cell-based assay is to measure the potency and selectivity of synthesized PARP inhibitors in suppressing hydrogen peroxide-induced PARylation in cells with and without PARP1 expression. Several cell lines were used in this assay. The human PARP1 knockout HEK-293T cell line (#ab266598) was purchased from Abcam, and its corresponding wide-type control is the human wild-type HEK-293T cell line (#ab255449). The HAP1 isogenic cell lines with and without the PARP1 gene (#HZGHC003943c006) were purchased from Horizon Discovery. HeLa cells (wide-type with PARP1 gene) were purchased from ATCC. Cells were cultured using complete medium containing 10% fetal bovine serum. One day before the assay, cells were seeded in 96-well plates at the density of 20,000 cells per well in 100 uL complete medium. Compounds were dissolved using DMSO and diluted to the working concentrations using complete medium. Cells were pre-treated with compounds for 30 min and then stimulated with 10 mM hydrogen peroxide for 15 min. After stimulation, cells were immediately fixed using ice-cold methanol for 20 min. After fixation, cells were washed using 1×PBST buffer for 3 times, 5 min each time, to eliminate residual methanol. Cells were blocked for 2 h at room temperature in blocking buffer (LI-COR Biosciences, #927-70001). Primary antibody was diluted in diluent buffer (LI-COR Biosciences, #927-75001, 1:200) at 50 uL per well. Cells were incubated with the primary antibody at 4° C. for 18 h. The wells were then washed using 1×PBST for 3 times, 5 min each time. IRDye® 680RD Goat anti-Mouse IgG (H+L) secondary antibody was diluted at 1/2000 using the diluent buffer and added at 100 μL per well. Secondary antibody incubation was for 1 h at room temperature. Cells were then washed using 1×PBST for 3 times, 5 min each time. The signal was detected and analyzed using LI-COR Odyssey DLx Imaging system. Data were collected and further processed using GraphPad Prism for IC50 estimation.
For the compound `CCN1C(=O)Nc2c(F)c(CN3CCN(c4ccc(C(=O)NC5CCC5)nc4C)CC3)cc3ncnc1c23` [Compound I-96, N-cyclobutyl-5-(4-((3-ethyl-9-fluoro-2-oxo-2,3-dihydro-1H-pyrimido[4,5,6-de]quinazolin-8-yl)methyl)piperazin-1-yl)-6-methylpicolinamide], the IC50 was ≤ 10 nM.

Turning to `CNC(=O)c1ccc(N2CCN(Cc3cnc4c5c(c(=O)[nH]c4c3)CCC5)CC2)c(F)n1` [Compound I-24, 6-Fluoro-N-methyl-5-(4-((6-oxo-6,7,8,9-tetrahydro-5H-cyclopenta[c][1,5]naphthyridin-3-yl)methyl)piperazin-1-yl)picolinamide], the IC50 is ≤ 10 nM.

In the case of `CCN1C(=O)Nc2c(F)c(CN3CCN(c4ccc(C(=O)NC)nc4C)CC3)cc3nc(OC)nc1c23` [Compound I-50, 5-(4-((3-Ethyl-9-fluoro-5-methoxy-2-oxo-2,3-dihydro-1H-pyrimido[4,5,6-de]quinazolin-8-yl)methyl)piperazin-1-yl)-N,6-dimethylpicolinamide], the IC50 was ≤ 10 nM.

`CCN1C(=O)Nc2c(F)c(CN3CCN(c4ccc(C(=O)NC5(CC#N)CC5)nc4C)CC3)cc3ncnc1c23` [Compound I-79, N-(1-(cyanomethyl)cyclopropyl)-5-(4-((3-ethyl-9-fluoro-2-oxo-2,3-dihydro-1H-pyrimido[4,5,6-de]quinazolin-8-yl)methyl)piperazin-1-yl)-6-methylpicolinamide]: the IC50 was ≤ 10 nM.

As to `CCn1c(=O)[nH]c2cc(CN3CCN(c4ccc(C(=O)NC)nc4C(F)(F)F)CC3)ccc2c1=O` [Compound I-31, 5-(4-((3-Ethyl-2,4-dioxo-1,2,3,4-tetrahydroquinazolin-7-yl)methyl)piperazin-1-yl)-N-methyl-6-(trifluoromethyl)picolinamide], the IC50 was ≤ 10 nM.

For the compound `CCn1c(=O)[nH]c2cc(CN3CCN(c4ccc(C(=O)NC)nc4F)CC3)cc(F)c2c1=O` [Compound I-33, 5-(4-((3-Ethyl-5-fluoro-2,4-dioxo-1,2,3,4-tetrahydroquinazolin-7-yl)methyl)piperazin-1-yl)-6-fluoro-N-methylpicolinamide], the IC50 was ≤ 10 nM.

On to `CNC(=O)c1ccc(N2CCN(Cc3ccc4c(c3)[nH]c(=O)c3c4ccn3C)CC2)cn1` [Compound I-7, N-methyl-5-(4-((3-methyl-4-oxo-4,5-dihydro-3H-pyrrolo[2,3-c]quinolin-7-yl)methyl)piperazin-1-yl)picolinamide], for which the IC50 was ≤ 10 nM.

For the compound `CCn1c(=O)[nH]c2c(F)c(CN3CCN(c4ccc(C(=O)NC)nc4C)CC3)cc(C3CC3)c2c1=O` [Compound I-40, 5-(4-((5-Cyclopropyl-3-ethyl-8-fluoro-2,4-dioxo-1,2,3,4-tetrahydroquinazolin-7-yl)methyl)piperazin-1-yl)-N,6-dimethylpicolinamide], the IC50 was ≤ 10 nM.

For `CCN1C(=O)Nc2c(F)c(CN3CCN(c4ccc(C(=O)NC5CC5)nc4C)CC3)cc3c(C)nnc1c23` [Compound I-56, N-cyclopropyl-5-(4-((9-ethyl-6-fluoro-3-methyl-8-oxo-8,9-dihydro-7H-pyridazino[3,4,5-de]quinazolin-5-yl)methyl)piperazin-1-yl)-6-methylpicolinamide], the IC50 was ≤ 10 nM.

For `CCN1C(=O)Nc2c(F)c(CN3CCN(c4ccc(C(=O)NOC)nc4C)CC3)cc3ncnc1c23` [Compound I-57, 5-(4-((3-Ethyl-9-fluoro-2-oxo-2,3-dihydro-1H-pyrimido[4,5,6-de]quinazolin-8-yl)methyl)piperazin-1-yl)-N-methoxy-6-methylpicolinamide], the IC50 was ≤ 10 nM.

As for `CCN1C(=O)Nc2c(F)c(CN3CCN(c4ccc(C(=O)N[C@H]5CC[C@H](C#N)CC5)nc4C)CC3)cc3ncnc1c23` [Compound I-75, N-((1r,4r)-4-cyanocyclohexyl)-5-(4-((3-ethyl-9-fluoro-2-oxo-2,3-dihydro-1H-pyrimido[4,5,6-de]quinazolin-8-yl)methyl)piperazin-1-yl)-6-methylpicolinamide], the IC50 was 10 to 100 nM.

In the case of `CCN1C(=O)Nc2c(F)c(CN3CCN(c4ccc(C(=O)NC)nc4C)CC3)cc3nc(C)nc1c23` [Compound I-52, 5-(4-((3-Ethyl-9-fluoro-5-methyl-2-oxo-2,3-dihydro-1H-pyrimido[4,5,6-de]quinazolin-8-yl)methyl)piperazin-1-yl)-N,6-dimethylpicolinamide], the IC50 was ≤ 10 nM.

Consider `CCN1C(=O)Nc2c(F)c(CN3CCN(c4ccc(C(=O)NC5(CO)CC5)nc4C)CC3)cc3ncnc1c23` [Compound I-59, 5-(4-((3-ethyl-9-fluoro-2-oxo-2,3-dihydro-1H-pyrimido[4,5,6-de]quinazolin-8-yl)methyl)piperazin-1-yl)-N-(1-(hydroxymethyl)cyclopropyl)-6-methylpicolinamide], for which the IC50 is ≤ 10 nM.

On to `CNC(=O)c1ccc(N2CCN(Cc3ccc4c(c3)NC(=O)C3(CC3)C4)CC2)cn1` [Compound I-5, N-methyl-5-(4-((2′-oxo-1′,4′-dihydro-2′H-spiro[cyclopropane-1,3′-quinolin]-7′-yl)methyl)piperazin-1-yl)picolinamide], for which the IC50 was in the range of 10 to 100 nM.

Turning to `CCN1C(=O)Nc2c(F)c(CN3CCN(c4ccc(C(=O)NC5(CC#N)CC5)cc4C)CC3)cc3ncnc1c23` [Compound I-93, N-(1-(cyanomethyl)cyclopropyl)-4-(4-((3-ethyl-9-fluoro-2-oxo-2,3-dihydro-1H-pyrimido[4,5,6-de]quinazolin-8-yl)methyl)piperazin-1-yl)-3-methylbenzamide], the IC50 was ≤ 10 nM.

On to `CCn1c(=O)[nH]c2c(F)c(CN3CCN(c4ccc(C(=O)NC)nc4C)CC3)cc(Cl)c2c1=O` [Compound I-39, 5-(4-((5-chloro-3-ethyl-8-fluoro-2,4-dioxo-1,2,3,4-tetrahydroquinazolin-7-yl)methyl)piperazin-1-yl)-N,6-dimethylpicolinamide], for which the IC50 was ≤ 10 nM.

For `CCN1Cc2ncc(CN3CCN(c4ccc(C(=O)NC)nc4)CC3)cc2NC1=O` [Compound I-11, 5-(4-((3-Ethyl-2-oxo-1,2,3,4-tetrahydropyrido[3,2-d]pyrimidin-7-yl)methyl)piperazin-1-yl)-N-methylpicolinamide], the IC50 is 10 to 100 nM.

For `CCN1C(=O)Nc2c(F)c(CN3CCN(c4ccc(C(=O)N[C@@H]5CCN(C)C5)nc4C)CC3)cc3ncnc1c23` [Compound I-77, (R)-5-(4-((3-ethyl-9-fluoro-2-oxo-2,3-dihydro-1H-pyrimido[4,5,6-de]quinazolin-8-yl)methyl)piperazin-1-yl)-6-methyl-N-(1-methylpyrrolidin-3-yl)picolinamide], the IC50 lay within 10 to 100 nM.

With `CCN1C(=O)Nc2c(F)c(CN3CCN(c4ccc(C(=O)N[C@H]5CCOC5)nc4C)CC3)cc3ncnc1c23` [Compound I-73, (S)-5-(4-((3-ethyl-9-fluoro-2-oxo-2,3-dihydro-1H-pyrimido[4,5,6-de]quinazolin-8-yl)methyl)piperazin-1-yl)-6-methyl-N-(tetrahydrofuran-3-yl)picolinamide], the IC50 was ≤ 10 nM.

In the case of `CCc1c2c3c(cc(CN4CCN(c5ccc(C(=O)NC)nc5)CC4)cc3[nH]c1=O)OCC2` [Compound I-14, 5-(4-((4-Ethyl-5-oxo-2,3,5,6-tetrahydropyrano[4,3,2-de]quinolin-8-yl)methyl)piperazin-1-yl)-N-methylpicolinamide], the IC50 was ≤ 10 nM.
